Experimental data reported in PubChem BioAssay AID602147 (Vanderbilt Specialized Chemistry Center, 2011).

target: Phospholipase D2 (Homo sapiens) (UniProt O14939); assay: PLD2 inhibitor potency in cells, dose response (AID 602147); conditions: cellular PLD2 activity assay, concentration response
Sequence (O14939 whole entry, looked up): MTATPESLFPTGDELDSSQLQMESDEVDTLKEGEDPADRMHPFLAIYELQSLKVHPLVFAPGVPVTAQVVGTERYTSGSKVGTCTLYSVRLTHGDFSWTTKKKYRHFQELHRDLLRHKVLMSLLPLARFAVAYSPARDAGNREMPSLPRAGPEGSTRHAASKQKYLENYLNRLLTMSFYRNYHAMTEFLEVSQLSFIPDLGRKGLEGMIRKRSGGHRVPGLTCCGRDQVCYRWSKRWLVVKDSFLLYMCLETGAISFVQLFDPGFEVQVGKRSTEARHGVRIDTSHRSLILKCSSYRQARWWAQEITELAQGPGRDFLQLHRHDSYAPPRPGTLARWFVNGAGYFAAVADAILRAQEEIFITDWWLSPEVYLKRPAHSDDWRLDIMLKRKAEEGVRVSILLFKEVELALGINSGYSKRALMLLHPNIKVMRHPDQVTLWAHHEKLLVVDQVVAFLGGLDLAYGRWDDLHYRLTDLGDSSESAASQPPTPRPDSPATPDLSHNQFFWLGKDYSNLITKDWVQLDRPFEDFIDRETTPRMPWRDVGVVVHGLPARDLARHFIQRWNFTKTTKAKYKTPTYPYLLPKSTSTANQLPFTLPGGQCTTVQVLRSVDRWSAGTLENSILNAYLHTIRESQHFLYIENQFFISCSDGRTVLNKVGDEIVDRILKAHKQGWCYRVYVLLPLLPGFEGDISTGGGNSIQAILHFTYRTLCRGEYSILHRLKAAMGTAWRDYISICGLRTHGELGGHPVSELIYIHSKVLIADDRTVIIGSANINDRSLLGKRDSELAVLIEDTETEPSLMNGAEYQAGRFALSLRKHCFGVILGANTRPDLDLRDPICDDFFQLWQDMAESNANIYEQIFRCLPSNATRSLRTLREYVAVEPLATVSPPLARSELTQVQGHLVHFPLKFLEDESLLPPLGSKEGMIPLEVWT
Sequence (O14939 whole entry, looked up): as above

Going from `O=C(C#Cc1ccccc1)NCCN1CCC2(CC1)C(=O)NCN2c1ccccc1` to `O=C(NCCN1CCC2(CC1)C(=O)NCN2c1ccccc1)c1cc2ccccc2s1`, the IC50 falls from 1640 nM to 30 nM (55-fold).

Compared with `O=C(NCCN1CCC2(CC1)C(=O)NCN2c1ccc(F)cc1)c1cnc2ccccc2c1`, `O=C(NCCN1CCC2(CC1)C(=O)NCN2c1ccc(Cl)cc1)c1cnc2ccccc2c1` is 5-fold higher in IC50: 40 nM for the first, 200 nM for the second.

First: O=C(NCCN1CCC2(CC1)C(=O)NCN2c1ccc(F)c(F)c1)c1ccc(F)cc1
Second: O=C(NCCN1CCC2(CC1)C(=O)NCN2c1cccc(F)c1)c1ccc(F)cc1
The IC50 of the first is 10-fold lower: 660 nM for the first, 6690 nM for the second. The first is the more potent here.

Going from `O=C(NCCN1CCC2(CC1)C(=O)NCN2c1ccc(Cl)cc1)c1ccc2ccccc2c1` to `O=C(NCCN1CCC2(CC1)C(=O)NCN2c1ccc(Br)cc1)c1ccc2ccccc2c1`, the IC50 falls from 655 nM to 350 nM (1.9-fold). The second is the more potent here.

Going from `O=C(NCCN1CCC2(CC1)C(=O)NCN2c1cccc(Cl)c1)c1ccc(F)cc1` to `O=C(NCCN1CCC2(CC1)C(=O)NCN2c1ccc(Cl)cc1)c1ccc(F)cc1`, the IC50 rises from 70 nM to 5670 nM (81-fold). The first is the more potent here.

First: O=C(NCCN1CCC2(CC1)C(=O)NCN2c1cccc(Cl)c1)c1cc2cc(F)ccc2[nH]1
Second: O=C(NCCN1CCC2(CC1)C(=O)NCN2c1cccc(F)c1)c1cc2cc(F)ccc2[nH]1
The IC50 of the first is 2.9-fold higher: 73 nM for the first, 25 nM for the second. The second is the more potent here.

First: O=C(NCCN1CCC2(CC1)C(=O)NCN2c1cccc(Cl)c1)c1ccc2ccccc2c1
Second: O=C(NCCN1CCC2(CC1)C(=O)NCN2c1cccc(Cl)c1)c1cnc2ccccc2c1
The IC50 of the first is 1.8-fold higher: 290 nM for the first, 165 nM for the second.

`C[C@@H](CN1CCC2(CC1)C(=O)NCN2c1cccc(F)c1)NC(=O)c1ccc2ccccc2c1` and `O=C(NCCN1CCC2(CC1)C(=O)NCN2c1ccc(F)cc1)c1ccc2ccccc2c1` are within 1.5-fold of each other in IC50: 60 nM for the first, 80 nM for the second.

Compared with `O=C(NCCN1CCC2(CC1)C(=O)NCN2c1ccc(Br)cc1)c1ccc(F)cc1`, `O=C(NCCN1CCC2(CC1)C(=O)NCN2c1ccc(F)cc1)c1ccc(F)cc1` is 13-fold lower in IC50: 8000 nM for the first, 610 nM for the second. The second is the more potent here.

Compared with `O=C(NCCN1CCC2(CC1)C(=O)NCN2c1ccc(Cl)cc1)c1cc2cc(F)ccc2[nH]1`, `O=C(NCCN1CCC2(CC1)C(=O)NCN2c1ccc(Br)cc1)c1cc2cc(F)ccc2[nH]1` is 2-fold higher in IC50: 50 nM for the first, 100 nM for the second.

First: O=C(NCCN1CCC2(CC1)C(=O)NCN2c1ccc(Br)cc1)c1cnc2ccccc2c1
Second: O=C(NCCN1CCC2(CC1)C(=O)NCN2c1cccc(F)c1)c1cnc2ccccc2c1
The IC50 of the first is 5.7-fold higher: 360 nM for the first, 63 nM for the second.

`COc1cc(C(=O)NCCN2CCC3(CC2)C(=O)NCN3c2ccccc2)ccc1N` showed an IC50 of 550 nM.
